Test results published in PubChem BioAssay (NCI).
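GI50 marks 50% less growth. TGI: concentration producing complete growth inhibition.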

Legend:
Assay in all cases: inhibition of tumour cell growth, NCI panel, 384-well format
[1] = system: 786-0 renal
[2] = system: SNB-19 CNS
[3] = system: CAKI-1 renal
[4] = system: SW-620 colon
[5] = system: HT29 colon
[6] = system: SR leukemia
[7] = system: OVCAR-4 ovarian
[8] = system: OVCAR-3 ovarian
[9] = system: KM12 colon
[10] = system: RXF 393 renal
[11] = system: HCC-2998 colon
[12] = system: IGROV1 ovarian
[13] = system: SF-295 CNS
[14] = system: UACC-257 melanoma
[15] = system: SNB-75 CNS
[16] = system: OVCAR-8 ovarian
[17] = system: HOP-62 NSCLC
[18] = system: OVCAR-5 ovarian
[19] = system: A498 renal
[20] = system: HL-60(TB) leukemia
[21] = system: SK-MEL-28 melanoma
[22] = system: COLO 205 colon
[23] = system: MDA-MB-231 breast
[24] = system: A549 NSCLC
[25] = system: TK-10 renal
[26] = system: BT-549 breast
[27] = system: T-47D breast
[28] = system: MDA-MB-468 breast
[29] = system: MDA-MB-435 melanoma
[30] = system: NCI-H23 lung
[31] = system: NCI-H522 lung
[32] = system: SF-539 CNS
[33] = system: HS 578T breast
[34] = system: SN12C renal
[35] = system: UACC-62 melanoma
[36] = system: LOX IMVI melanoma
[37] = system: MOLT-4 leukemia
[38] = system: NCI-H226 lung
[39] = system: NCI/ADR-RES ovarian
[40] = system: M14 melanoma
[41] = system: ACHN renal
[42] = system: HCT-15 colon
[43] = system: UO-31 renal
[44] = system: NCI-H322M lung
[45] = system: CCRF-CEM leukemia
[46] = system: NCI-H460 NSCLC
[47] = system: DU-145 prostate
[48] = system: SF-268 CNS
[49] = system: K-562 leukemia
[50] = system: MALME-3M melanoma
[51] = system: MCF7 breast
[52] = system: SK-OV-3 ovarian
[53] = system: RPMI-8226 leukemia
[54] = system: SK-MEL-5 melanoma
[55] = system: HOP-92 NSCLC
[56] = system: EKVX NSCLC
[57] = system: PC-3 prostate

Work on Cc1cncc(-c2nc(NCCc3c[nH]c4ccccc34)c3ncn(C(C)C)c3n2)c1 yielded a GI50 [1] of 1.76 µM, a TGI [1] of 3.65 µM and a GI50 [2] of 5.5 µM. It also gave a TGI [2] of 18.8 µM, a GI50 [3] of 3.96 µM and a TGI [3] of 12.7 µM. The GI50 [4] was 2.11 µM, the TGI [4] was 3.74 µM and the GI50 [5] was 1.71 µM. It also gave a TGI [5] of 3.19 µM, a GI50 [6] of 1.47 µM and a TGI [6] of 3.02 µM. It also gave a GI50 [7] of 3.37 µM, a TGI [7] of 9.2 µM and a GI50 [8] of 4.65 µM. For the same compound, the TGI [8] was 14.3 µM, the GI50 [9] was 2.07 µM and the TGI [9] was 4.21 µM. It also gave a GI50 [10] of 1.96 µM, a TGI [10] of 4.63 µM and a GI50 [11] of 2.5 µM. The TGI [11] was 5 µM, the GI50 [12] was 4.19 µM and the TGI [12] was 14.8 µM. The GI50 [13] was 1.93 µM, the TGI [13] was 3.93 µM and the GI50 [14] was 2.04 µM. It also gave a TGI [14] of 3.54 µM, a GI50 [15] of 4.46 µM and a TGI [15] of 16.8 µM. It also gave a GI50 [16] of 4.05 µM, a TGI [16] of 13.6 µM and a GI50 [17] of 2.92 µM. It also gave a TGI [17] of 8.22 µM, a GI50 [18] of 2.06 µM and a TGI [18] of 4.73 µM. For the same compound, the GI50 [19] was 2.39 µM, the TGI [19] was 6.39 µM and the GI50 [20] was 1.73 µM. For the same compound, the TGI [20] was 3.15 µM, the GI50 [21] was 1.89 µM and the TGI [21] was 3.94 µM. For the same compound, the GI50 [22] was 2.28 µM, the TGI [22] was 4.29 µM and the GI50 [23] was 4.16 µM. It also gave a TGI [23] of 12 µM, a GI50 [24] of 3.84 µM and a TGI [24] of 14.1 µM. For the same compound, the GI50 [25] was 3.12 µM, the TGI [25] was 13.2 µM and the GI50 [26] was 4.91 µM. It also gave a TGI [26] of 15.4 µM, a GI50 [27] of 3.57 µM and a TGI [27] of 10.9 µM. It also gave a GI50 [28] of 2.21 µM, a TGI [28] of 4.14 µM and a GI50 [29] of 5.52 µM. The TGI [29] was 17.8 µM, the GI50 [30] was 3.81 µM and the TGI [30] was 12.8 µM. It also gave a GI50 [31] of 4.42 µM, a TGI [31] of 13.1 µM and a GI50 [32] of 2.63 µM. The TGI [32] was 7.18 µM, the GI50 [33] was 2.52 µM and the TGI [33] was 5.41 µM. It also gave a GI50 [34] of 5.32 µM, a TGI [34] of 17.2 µM and a GI50 [35] of 2.56 µM. The TGI [35] was 5.81 µM, the GI50 [36] was 4.15 µM and the TGI [36] was 13.9 µM. For the same compound, the GI50 [37] was 1.87 µM, the TGI [37] was 3.55 µM and the GI50 [38] was 4.34 µM. It also gave a TGI [38] of 11.3 µM, a GI50 [39] of 3.29 µM and a TGI [39] of 9.08 µM. The GI50 [40] was 2.84 µM, the TGI [40] was 6.11 µM and the GI50 [41] was 4.17 µM. For the same compound, the TGI [41] was 13.5 µM, the GI50 [42] was 1.77 µM and the TGI [42] was 3.29 µM. For the same compound, the GI50 [43] was 4.64 µM, the TGI [43] was 17.3 µM and the GI50 [44] was 3.06 µM. For the same compound, the TGI [44] was 10.1 µM, the GI50 [45] was 2.11 µM and the TGI [45] was 4.22 µM. It also gave a GI50 [46] of 2.26 µM, a TGI [46] of 4.53 µM and a GI50 [47] of 3.47 µM. The TGI [47] was 11.1 µM, the GI50 [48] was 3.93 µM and the TGI [48] was 12.8 µM. For the same compound, the GI50 [49] was 1.89 µM, the TGI [49] was 3.47 µM and the GI50 [50] was 1.77 µM. The TGI [50] was 3.24 µM, the GI50 [51] was 3.42 µM and the TGI [51] was 9.2 µM. For the same compound, the GI50 [52] was 3.99 µM, the TGI [52] was 12.3 µM and the GI50 [53] was 2.2 µM. For the same compound, the TGI [53] was 3.78 µM, the GI50 [54] was 2.5 µM and the TGI [54] was 7.39 µM. The GI50 [55] was 3.76 µM, the TGI [55] was 10.5 µM and the GI50 [56] was 4.24 µM. The TGI [56] was 14 µM, the GI50 [57] was 3.19 µM and the TGI [57] was 8.62 µM.
